Data taken from patent US20250179103A1, “6-OXODECAHYDROPYRROLO[1,2-A][1,5]DIAZOCINE AND 6-OXODECAHYDRO-4H-PYRROLO[2,1-D][1,5]THIAZOCINE DERIVATIVES AS STAT3 AND STAT6 MODULATORS FOR THE TREATMENT OF CANCER AND INFLAMMATORY CONDITIONS” (Recludix Pharma, Inc., priority 2022, published 2025).
pIC50: −log10 of the molar value.

Tests used:
[1] = biological target: T1, Recombinant STAT3 protein (STAT3(G127-I722)) (Homo sapiens, UniProt P40763); assay: STAT3 Fluorescence Polarization (FP) Assay; type: binding; settings: STAT3(G127-I722) 25 nM, probe 5-FAM-GpYLPQTV-NH2 2 nM, 45-minute incubation
T1 construct: Recombinant STAT3 protein (STAT3(G127-I722))
T1 sequence (P40763 127-722): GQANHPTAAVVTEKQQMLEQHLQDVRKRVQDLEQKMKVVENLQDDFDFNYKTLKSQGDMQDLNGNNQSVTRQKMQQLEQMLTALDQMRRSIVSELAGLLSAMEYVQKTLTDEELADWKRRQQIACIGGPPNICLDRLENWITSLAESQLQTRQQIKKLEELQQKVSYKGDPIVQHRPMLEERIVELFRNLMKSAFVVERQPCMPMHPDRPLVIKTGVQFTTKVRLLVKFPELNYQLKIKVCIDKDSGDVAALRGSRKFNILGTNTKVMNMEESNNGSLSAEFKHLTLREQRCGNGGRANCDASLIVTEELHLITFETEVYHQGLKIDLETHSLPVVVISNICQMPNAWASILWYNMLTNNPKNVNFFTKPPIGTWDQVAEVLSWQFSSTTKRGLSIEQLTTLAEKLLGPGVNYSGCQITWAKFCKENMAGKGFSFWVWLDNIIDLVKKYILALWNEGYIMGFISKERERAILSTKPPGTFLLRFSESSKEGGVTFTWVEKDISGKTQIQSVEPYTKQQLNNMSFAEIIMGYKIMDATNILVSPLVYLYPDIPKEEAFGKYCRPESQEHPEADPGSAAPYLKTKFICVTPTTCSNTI
In short: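 STAT3(G127-I722), 25 nM, was mixed with 2 nM 5-FAM-GpYLPQTV-NH2 probe in HEPES pH 7.4 buffer with 1% DMSO and serially diluted compound. FP (mP) was read after 45 min at room temperature. IC50 came from nonlinear regression.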

[2] = biological target: T2, Recombinant STAT6 protein (STAT6(W123-T658)) (Homo sapiens, UniProt P42226); assay: STAT6 Fluorescence Polarization (FP) Assay; type: binding; settings: STAT6(W123-T658) 250 nM, probe 5-FAM-ApYKPFQDLI-NH2 2 nM, 45-minute incubation
T2 construct: Recombinant STAT6 protein (STAT6(W123-T658))
T2 sequence (P42226 123-658): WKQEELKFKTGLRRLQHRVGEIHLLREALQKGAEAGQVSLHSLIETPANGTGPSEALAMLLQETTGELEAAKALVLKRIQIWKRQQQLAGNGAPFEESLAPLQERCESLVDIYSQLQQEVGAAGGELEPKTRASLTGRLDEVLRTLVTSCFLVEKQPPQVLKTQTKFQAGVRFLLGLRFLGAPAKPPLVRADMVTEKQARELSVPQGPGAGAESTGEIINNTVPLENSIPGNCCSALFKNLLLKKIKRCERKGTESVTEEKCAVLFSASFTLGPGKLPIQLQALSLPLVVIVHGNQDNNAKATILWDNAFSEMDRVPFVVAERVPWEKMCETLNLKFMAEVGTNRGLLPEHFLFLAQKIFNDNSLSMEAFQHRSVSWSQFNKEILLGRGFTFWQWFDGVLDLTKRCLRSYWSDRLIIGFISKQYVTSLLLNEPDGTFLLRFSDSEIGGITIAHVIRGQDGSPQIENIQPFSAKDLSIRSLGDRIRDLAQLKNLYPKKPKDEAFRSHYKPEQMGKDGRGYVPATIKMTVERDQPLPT
In short: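 Displacement of a fluorescent phosphotyrosine peptide (5-FAM-ApYKPFQDLI-NH2, 2 nM) from STAT6(W123-T658) (250 nM), 1% DMSO, pH 7.4 HEPES buffer. After 45 min at room temperature, polarization (mP) was plotted versus log compound concentration and fitted by nonlinear regression to give IC50.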

pIC50 [1] | pIC50 [2] | Compound
6.00 to 7.00 | ≥ 6.52 | CC(=O)N1CC[C@H]2CC[C@@H](C(=O)N(C)c3ccc4nnccc4c3)N2C(=O)[C@@H](NC(=O)c2cc3cc(C(F)(F)P(=O)(O)O)ccc3s2)C1 [Compound 191, ((2-(((5S,8S,10aR)-3-acetyl-8-(cinnolin-6-yl(methyl)carbamoyl)-6-oxodecahydropyrrolo[1,2-a][1,5]diazocin-5-yl)carbamoyl)benzo[b]thiophen-5-yl)difluoromethyl)phosphonic acid]
5.00 to 6.00 | 4.52 to 5.52 | CC(=O)N1CC[C@H]2CC[C@@H](C(=O)N3CCC(C(=O)N4CCCCC4)CC3)N2C(=O)[C@@H](NC(=O)c2cc3cc(C(F)(F)P(=O)(O)O)ccc3s2)C1 [Compound 192, ((2-(((5S,8S,10aR)-3-acetyl-6-oxo-8-(4-(piperidine-1-carbonyl)piperidine-1-carbonyl)decahydropyrrolo[1,2-a][1,5]diazocin-5-yl)carbamoyl)benzo[b]thiophen-5-yl)difluoromethyl)phosphonic acid]
6.00 to 7.00 | 5.52 to 6.52 | CC(=O)N1CC[C@H]2CC[C@@H](C(=O)N3CC[C@H](C(=O)N4CCCCC4)C3)N2C(=O)[C@@H](NC(=O)c2cc3cc(C(F)(F)P(=O)(O)O)ccc3s2)C1 [Compound 193, ((2-(((5S,8S,10aR)-3-acetyl-6-oxo-8-((S)-3-(piperidine-1-carbonyl)pyrrolidine-1-carbonyl)decahydropyrrolo[1,2-a][1,5]diazocin-5-yl)carbamoyl)benzo[b]thiophen-5-yl)difluoromethyl)phosphonic acid]
5.00 to 6.00 | 5.52 to 6.52 | CC(=O)N1CC[C@H]2CC[C@@H](C(=O)N3CC[C@@H](C(=O)N4CCCCC4)C3)N2C(=O)[C@@H](NC(=O)c2cc3cc(C(F)(F)P(=O)(O)O)ccc3s2)C1 [Compound 194, ((2-(((5S,8S,10aR)-3-acetyl-6-oxo-8-((R)-3-(piperidine-1-carbonyl)pyrrolidine-1-carbonyl)decahydropyrrolo[1,2-a][1,5]diazocin-5-yl)carbamoyl)benzo[b]thiophen-5-yl)difluoromethyl)phosphonic acid]
5.00 to 6.00 | 5.52 to 6.52 | CC(=O)N1CC[C@H]2CC[C@@H](C(=O)N3CC(C(=O)N4CCN(C)CC4)C3)N2C(=O)[C@@H](NC(=O)c2cc3cc(C(F)(F)P(=O)(O)O)ccc3s2)C1 [Compound 195, ((2-(((5S,8S,10aR)-3-acetyl-8-(3-(4-methylpiperazine-1-carbonyl)azetidine-1-carbonyl)-6-oxodecahydropyrrolo[1,2-a][1,5]diazocin-5-yl)carbamoyl)benzo[b]thiophen-5-yl)difluoromethyl)phosphonic acid]
6.00 to 7.00 | 5.52 to 6.52 | CC(=O)N1CC[C@H]2CC[C@@H](C(=O)Nc3ccc(-c4ccccc4)cc3Cc3nccs3)N2C(=O)[C@@H](NC(=O)c2cc3cc(C(F)(F)P(=O)(O)O)ccc3s2)C1 [Compound 196, ((2-(((5S,8S,10aR)-3-acetyl-6-oxo-8-((3-(thiazol-2-ylmethyl)-[1,1′-biphenyl]-4-yl)carbamoyl)decahydropyrrolo[1,2-a][1,5]diazocin-5-yl)carbamoyl)benzo[b]thiophen-5-yl)difluoromethyl)phosphonic acid]
6.00 to 7.00 | 5.52 to 6.52 | CC(=O)N1CC[C@H]2CC[C@@H](C(=O)N3CCOc4cc(-c5ccccc5)ccc43)N2C(=O)[C@@H](NC(=O)c2cc3cc(C(F)(F)P(=O)(O)O)ccc3s2)C1 [Compound 197, ((2-(((5S,8S,10aR)-3-acetyl-6-oxo-8-(7-phenyl-3,4-dihydro-2H-benzo[b][1,4]oxazine-4-carbonyl)decahydropyrrolo[1,2-a][1,5]diazocin-5-yl)carbamoyl)benzo[b]thiophen-5-yl)difluoromethyl)phosphonic acid]
6.00 to 7.00 | 5.52 to 6.52 | CNC(=O)Cc1cc(-c2ccccc2)ccc1NC(=O)[C@@H]1CC[C@@H]2CCN(C(C)=O)C[C@H](NC(=O)c3cc4cc(C(F)(F)P(=O)(O)O)ccc4s3)C(=O)N21 [Compound 198, ((2-(((5S,8S,10aR)-3-acetyl-8-((3-(2-(methylamino)-2-oxoethyl)-[1,1′-biphenyl]-4-yl)carbamoyl)-6-oxodecahydrpyrrolo[1,2-a][1,5]diazocin-5-yl)carbamoyl)benzo[b]thiophen-5-yl)difluoromethyl)phosphonic acid]
5.00 to 6.00 | 5.52 to 6.52 | CC(=O)N1CC[C@H]2CC[C@@H](C(=O)Nc3ccc4nnccc4c3)N2C(=O)[C@@H](NC(=O)c2ccc3ccc(C(F)(F)P(=O)(O)O)cc3c2)C1 [Compound 199, ((7-(((5S,8S,10aR)-3-acetyl-8-(cinnolin-6-ylcarbamoyl)-6-oxodecahydropyrrolo[1,2-a][1,5]diazocin-5-yl)carbamoyl)naphthalen-2-yl)difluoromethyl)phosphonic acid]
5.00 to 6.00 | 5.52 to 6.52 | CC(=O)N1CC[C@H]2CC[C@@H](C(=O)N3CCC[C@H]3Cc3ccccc3)N2C(=O)[C@@H](NC(=O)c2ccc3ccc(C(F)(F)P(=O)(O)O)cc3c2)C1 [Compound 200, ((7-(((5S,8S,10aR)-3-acetyl-8-((S)-2-benzylpyrrolidine-1-carbonyl)-6-oxodecahydropyrrolo[1,2-a][1,5]diazocin-5-yl)carbamoyl)naphthalen-2-yl)difluoromethyl)phosphonic acid]
5.00 to 6.00 | 5.52 to 6.52 | CC(=O)N1CC[C@H]2CC[C@@H](C(=O)N(C)c3cccc(C(F)F)c3)N2C(=O)[C@@H](NC(=O)c2cc3cc(C(F)(F)P(=O)(O)O)ccc3s2)C1 [Compound 201, ((2-(((5S,8S,10aR)-3-acetyl-8-((3-(difluoromethyl)phenyl)(methyl)carbamoyl)-6-oxodecahydropyrrolo[1,2-a][1,5]diazocin-5-yl)carbamoyl)benzo[b]thiophen-5-yl)difluoromethyl)phosphonic acid]
5.00 to 6.00 | 5.52 to 6.52 | CC(=O)N1CC[C@H]2CC[C@@H](C(=O)N(C)c3ccc(C(F)F)cc3)N2C(=O)[C@@H](NC(=O)c2cc3cc(C(F)(F)P(=O)(O)O)ccc3s2)C1 [Compound 202, ((2-(((5S,8S,10aR)-3-acetyl-8-((4-(difluoromethyl)phenyl)(methyl)carbamoyl)-6-oxodecahydropyrrolo[1,2-a][1,5]diazocin-5-yl)carbamoyl)benzo[b]thiophen-5-yl)difluoromethyl)phosphonic acid]
≥ 7.00 | 5.52 to 6.52 | CC(=O)N1CC[C@H]2CC[C@@H](C(=O)N3CC(c4cccc(C#N)c4)C3)N2C(=O)[C@@H](NC(=O)c2cc3cc(C(F)(F)P(=O)(O)O)ccc3s2)C1 [Compound 208, ((2-(((5S,8S,10aR)-3-acetyl-8-(3-(3-cyanophenyl)azetidine-1-carbonyl)-6-oxodecahydropyrrolo[1,2-a][1,5]diazocin-5-yl)carbamoyl)benzo[b]thiophen-5-yl)difluoromethyl)phosphonic acid]
≥ 7.00 | 4.52 to 5.52 | O=C(N[C@H]1CCN(C(c2ccccc2)c2ccccc2)C[C@H]2CC[C@@H](C(=O)N3CC(c4cccnc4)C3)N2C1=O)c1cc2cc(C(F)(F)P(=O)(O)O)ccc2s1 [Compound 210, ((2-(((5S,8S,10aR)-2-benzhydryl-6-oxo-8-(3-(pyridin-3-yl)azetidine-1-carbonyl)decahydropyrrolo[1,2-a][1,4]diazocin-5-yl)carbamoyl)benzo[b]thiophen-5-yl)difluoromethyl)phosphonic acid]
5.00 to 6.00 | 4.52 to 5.52 | O=C(N[C@H]1CCNC[C@H]2CC[C@@H](C(=O)N3CC(c4cccnc4)C3)N2C1=O)c1cc2cc(C(F)(F)P(=O)(O)O)ccc2s1 [Compound 212, (difluoro(2-(((5S,8S,10aR)-6-oxo-8-(3-(pyridin-3-yl)azetidine-1-carbonyl)decahydropyrrolo[1,2-a][1,4]diazocin-5-yl)carbamoyl)benzo[b]thiophen-5-yl)methyl)phosphonic acid]
≥ 7.00 | 4.52 to 5.52 | O=C(N[C@H]1CCN(C(=O)OCc2ccccc2)C[C@H]2CC[C@@H](C(=O)N3CC(c4cccnc4)C3)N2C1=O)c1cc2cc(C(F)(F)P(=O)(O)O)ccc2s1 [Compound 214, ((2-(((5S,8S,10aR)-2-((benzyloxy)carbonyl)-6-oxo-8-(3-(pyridin-3-yl)azetidine-1-carbonyl)decahydropyrrolo[1,2-a][1,4]diazocin-5-yl)carbamoyl)benzo[b]thiophen-5-yl)difluoromethyl)phosphonic acid]
